Assay results as given in patent US4705799A, “Aminomethyl oxooxazolidinyl benzenes useful as antibacterial agents” (E. I. Du Pont de Nemours and Company, priority 1985, dated 1987).
≈ marks a conversion by molar mass, not a printed value.

Experiments:
[1] = tested on: Staphylococcus aureus; test: In vivo efficacy of orally administered compounds in mouse intraperitoneal infections; conditions: mouse i.p. Staphylococcus aureus infection, oral, dosed at infection and 4 h post-infection, 7 days; for ED50: Staphylococcus aureus, po, 168 h, read-out: ED50 (50 percent effective dose); for ED50 (50 percent effective dose): 10080 min
Experimental: (§1) Determinations of in vivo efficacy are performed by inoculating mice intraperitoneally with cultures of the infecting organism diluted to produce 90-100% mortality in control animals within twenty-four hours. The diluents used were trypticase soy broth for E. coli and 5% aqueous hog gastric mucin for Staphylococcus aureus infections. The compounds are dissolved or suspended in 0.25% aqueous Methocel® (Methocel®: Hydroxypropyl Methylcellulose E15 Premium, Dow Chemical Company) for oral administration or sterile distilled water containing 5% dimethylsulfoxide (Fisher Scientific Company, Fairlawn, N.J.) for subcutaneous administration. The mice are dosed at the time of infection and again at four hours post-infection. Mortality is recorded daily until test termination seven days post infection and the 50 percent effective dose, ED50, is calculated by the Reed-Muench method (Reed, L. G. and Muench, H., "A simple method of estimating fifty percent end points," American Journal of Hygiene, 27, 493-497 (1938).

[2] = tested on: Escherichia coli; test: as above; conditions: 168 h; mouse i.p. Escherichia coli infection; oral; dosed at infection and 4 h post-infection; 7 days; read-out: ED50 (50 percent effective dose)
Experimental: as §1

[3] = tested on: Escherichia coli; test: In vitro broth dilution minimal inhibitory concentration (standard microdilution method); assay type: cell-based; conditions: Escherichia coli, Mueller-Hinton broth, 24-hour; for MIC: read-out: Microdilution Broth MIC
[4] = tested on: Staphylococcus epidermidis; test: as above; assay type: cell-based; conditions: Mueller-Hinton broth, 24-hour; for MIC: 24 h, read-out: Microdilution Broth MIC
[5] = tested on: Staphylococcus aureus; test: In vivo efficacy of compounds administered subcutaneously in mouse intraperitoneal infections; conditions: mouse i.p. Staphylococcus aureus infection, subcutaneous, dosed at infection and 4 h post-infection, 7 days; for ED50: sc, 168 h, read-out: ED50 (50 percent effective dose); for ED50 (50 percent effective dose): 10080 min
Experimental: as §1

## CS(=O)(=O)c1ccc(N2CC(CN=[N+]=[N-])OC2=O)cc1 (single isomer, unassigned) [Example 2, (l)-5-Azidomethyl-3-[4-(methylsulfonyl)phenyl]-2-oxazolidinone]
[1]
  ED50: 7.3 mg/kg
[2]
  ED50: 52.6 mg/kg
[3]
  MIC: > 100 µg/mL
[4]
  MIC: 6.3 µg/mL (≈ 21.3 µM)

## [N-]=[N+]=NCC1CN(c2ccc(S(N)(=O)=O)cc2)C(=O)O1 (single isomer, unassigned) [Example 3, (l)-4-[5-(Azidomethyl)-2-oxooxazolidin-3-yl]benzenesulfonamide]
[1]
  ED50: 29.3 mg/kg
[2]
  ED50: > 120 mg/kg
[3]
  MIC: > 100 µg/mL
[4]
  MIC: 25 µg/mL (≈ 84.1 µM)

## CS(=O)(=O)c1ccc(N2CC(CNC=O)OC2=O)cc1 (single isomer, unassigned) [Example 21, (l)-N-[3-[4-(Methylsulfonyl)phenyl]-2-oxooxazolidin-5-ylmethyl]formamide]
[1]
  ED50: 7.3 mg/kg
[2]
  ED50: 30.3 mg/kg
[3]
  MIC: 100 µg/mL (≈ 335 µM)
[4]
  MIC: 6.3 µg/mL (≈ 21.1 µM)

## COC(=O)c1ccc(N2CC(CNC(C)=O)OC2=O)cc1 (single isomer, unassigned) [Example 184, (l)-4-[(5-Acetylaminomethyl)-2-oxo-3-oxazolidinyl]benzoic acid methyl ester]
[1]
  ED50: > 60 mg/kg
[5]
  ED50: 37.5 mg/kg
[3]
  MIC: > 128 µg/mL
[4]
  MIC: 4 µg/mL (≈ 13.7 µM)

## CC(=O)c1ccc(N2CC(CN=[N+]=[N-])OC2=O)cc1 (stereo not drawn) [Example 5]
[1]
  ED50: 172 mg/kg
[5]
  ED50: 41.2 mg/kg
[3]
  MIC: > 200 µg/mL
[4]
  MIC: 200 µg/mL (≈ 768 µM)

## CC(C)c1ccc(N2CC(CN=[N+]=[N-])OC2=O)cc1 (stereo not drawn) [Example 7]
[1]
  ED50: 24.2 mg/kg
[5]
  ED50: 33.7 mg/kg
[3]
  MIC: > 200 µg/mL
[4]
  MIC: 100 µg/mL (≈ 384 µM)

## CC(=O)c1ccc(N2CC(CN)OC2=O)cc1 (stereo not drawn) [Example 15]
[1]
  ED50: 40 mg/kg
[5]
  ED50: 24.9 mg/kg
[3]
  MIC: > 200 µg/mL
[4]
  MIC: > 200 µg/mL

## CC(C)c1ccc(N2CC(CN)OC2=O)cc1 (stereo not drawn) [Example 17]
[1]
  ED50: > 120 mg/kg
[5]
  ED50: 24.9 mg/kg
[3]
  MIC: > 200 µg/mL
[4]
  MIC: > 200 µg/mL

## CS(=O)(=O)c1ccc(N2CC(CNC(=O)c3ccccc3)OC2=O)cc1 (stereo not drawn) [Example 34]
[1]
  ED50: > 120 mg/kg
[5]
  ED50: 49.6 mg/kg
[3]
  MIC: > 200 µg/mL
[4]
  MIC: 25 µg/mL (≈ 66.8 µM)

## COC(=O)NCC1CN(c2ccc(C(F)(F)F)cc2)C(=O)O1 (stereo not drawn) [Example 42]
[1]
  ED50: 45.5 mg/kg
[5]
  ED50: 20.9 mg/kg
[3]
  MIC: > 200 µg/mL
[4]
  MIC: 100 µg/mL (≈ 314 µM)

## COC(=O)NCC1CN(c2ccc(S(N)(=O)=O)cc2)C(=O)O1 (stereo not drawn) [Example 45]
[1]
  ED50: > 120 mg/kg
[5]
  ED50: 9.6 mg/kg
[3]
  MIC: > 200 µg/mL
[4]
  MIC: 37.5 µg/mL (≈ 114 µM)

## CSc1ccc(N2CC(CNC(=O)C3CC3)OC2=O)cc1 (stereo not drawn) [Example 71]
[1]
  ED50: > 120 mg/kg
[5]
  ED50: 69.3 mg/kg
[3]
  MIC: > 200 µg/mL
[4]
  MIC: 50 µg/mL (≈ 163 µM)

## CS(=O)(=O)c1ccc(N2CC(CNC(=O)C3CC3)OC2=O)cc1 (stereo not drawn) [Example 72]
[1]
  ED50: > 120 mg/kg
[5]
  ED50: 15.2 mg/kg
[3]
  MIC: 200 µg/mL (≈ 591 µM)
[4]
  MIC: 25 µg/mL (≈ 73.9 µM)

## CC(=O)NCC1CN(c2ccc(C)cc2)C(=O)O1 (stereo not drawn) [Example 79]
[1]
  ED50: 99.8 mg/kg
[5]
  ED50: 85.1 mg/kg
[3]
  MIC: > 200 µg/mL
[4]
  MIC: 200 µg/mL (≈ 806 µM)

## CCCCc1ccc(N2CC(CNC(=O)OC)OC2=O)cc1 (stereo not drawn) [Example 80]
[1]
  ED50: 64 mg/kg
[5]
  ED50: 42.3 mg/kg
[3]
  MIC: > 200 µg/mL
[4]
  MIC: 25 µg/mL (≈ 81.6 µM)

## CC(=O)Cc1ccc(N2CC(CNC(C)=O)OC2=O)cc1 (stereo not drawn) [Example 99]
[1]
  ED50: 77.4 mg/kg
[5]
  ED50: 20.1 mg/kg
[3]
  MIC: > 200 µg/mL
[4]
  MIC: 25 µg/mL (≈ 86.1 µM)

## CC(=O)NCC1CN(c2ccc(CC(C)O)cc2)C(=O)O1 (stereo not drawn) [Example 100]
[1]
  ED50: 19.5 mg/kg
[5]
  ED50: 10.5 mg/kg
[3]
  MIC: > 200 µg/mL
[4]
  MIC: 12.5 µg/mL (≈ 42.8 µM)

## C=Cc1ccc(N2CC(CNC(C)=O)OC2=O)cc1 (stereo not drawn) [Example 101]
[1]
  ED50: 10.6 mg/kg
[5]
  ED50: 4.8 mg/kg
[3]
  MIC: 128 µg/mL (≈ 492 µM)
[4]
  MIC: 4 µg/mL (≈ 15.4 µM)

## CC(=O)NCC1CN(c2ccc(C(C)(O)CO)cc2)C(=O)O1 (stereo not drawn) [Example 102]
[1]
  ED50: 24 mg/kg
[5]
  ED50: 9 mg/kg
[3]
  MIC: > 128 µg/mL
[4]
  MIC: 16 µg/mL (≈ 51.9 µM)

## CC(=O)NCC1CN(c2ccc(C(C)(C)C)cc2)C(=O)O1 (stereo not drawn) [Example 105]
[1]
  ED50: 10.8 mg/kg
[5]
  ED50: 13.8 mg/kg
[3]
  MIC: > 128 µg/mL
[4]
  MIC: 1 µg/mL (≈ 3.44 µM)

## CC(=O)NCC1CN(c2ccc(CCCO)cc2)C(=O)O1 (stereo not drawn) [Example 107]
[1]
  ED50: > 60 mg/kg
[5]
  ED50: 18.6 mg/kg
[3]
  MIC: > 128 µg/mL
[4]
  MIC: 2 µg/mL (≈ 6.84 µM)

## CC(=O)NCC1CN(c2ccc(C(F)(F)C(F)(F)F)cc2)C(=O)O1 (stereo not drawn) [Example 108]
[1]
  ED50: 8.4 mg/kg
[5]
  ED50: 20.4 mg/kg
[3]
  MIC: > 128 µg/mL
[4]
  MIC: 2 µg/mL (≈ 5.68 µM)

## COC(=O)NCC1CN(c2ccc(S(=O)(=O)N(C)OC)cc2)C(=O)O1 (stereo not drawn) [Example 116]
[1]
  ED50: 25.9 mg/kg
[5]
  ED50: 14.9 mg/kg
[3]
  MIC: > 200 µg/mL
[4]
  MIC: 12.5 µg/mL (≈ 33.5 µM)

## COC(=O)N(C)CC1CN(c2ccc(S(C)(=O)=O)cc2)C(=O)O1 (stereo not drawn) [Example 128]
[1]
  ED50: 62 mg/kg
[5]
  ED50: 33.6 mg/kg
[3]
  MIC: > 200 µg/mL
[4]
  MIC: > 200 µg/mL

## CC(=O)NCC1CN(c2ccc(C(=O)C(Br)(Br)Br)cc2)C(=O)O1 (stereo not drawn) [Example 140]
[1]
  ED50: 6.6 mg/kg
[5]
  ED50: 13.2 mg/kg
[3]
  MIC: 128 µg/mL (≈ 250 µM)
[4]
  MIC: 4 µg/mL (≈ 7.8 µM)

## CC(=O)NCC1CN(c2ccc(C(=O)C3CCCCC3)cc2)C(=O)O1 (stereo not drawn) [Example 141]
[1]
  ED50: 40.2 mg/kg
[5]
  ED50: 20.8 mg/kg
[3]
  MIC: > 128 µg/mL
[4]
  MIC: 8 µg/mL (≈ 23.2 µM)

## CCc1cc(N2CC(CNC(C)=O)OC2=O)ccc1C(C)=O (stereo not drawn) [Example 143]
[1]
  ED50: 20.8 mg/kg
[5]
  ED50: 11.9 mg/kg
[3]
  MIC: > 128 µg/mL
[4]
  MIC: 16 µg/mL (≈ 52.6 µM)

## CC(=O)NCC1CN(c2ccc([S+]([O-])CCO)cc2)C(=O)O1 (stereo not drawn) [Example 168, (l)-N-[3-[4-(2-Hydroxyethylsulfinyl)phenyl]-2-oxo-oxazolidin-5-ylmethyl]acetamide]
[1]
  ED50 (50 percent effective dose): 49.8 mg/kg
[5]
  ED50 (50 percent effective dose): 24.3 mg/kg
[3]
  Microdilution Broth MIC: > 200.0 µg/mL
[4]
  Microdilution Broth MIC: 25.0 µg/mL

## CC(=O)NCC1CN(c2ccc([S+]([O-])CCO)cc2)C(=O)O1 (stereo not drawn) [Example 169, (l)-N-[3-[4-(2-Hydroxyethylsulfinyl)phenyl]-2-oxo-oxazolidin-5-ylmethyl]acetamide]
[1]
  ED50 (50 percent effective dose): 99.1 mg/kg
[5]
  ED50 (50 percent effective dose): 12.1 mg/kg
[3]
  Microdilution Broth MIC: 200.0 µg/mL
[4]
  Microdilution Broth MIC: 50.0 µg/mL

## CC(=O)c1ccc(N2CC(CNC(=O)CN)OC2=O)cc1 (stereo not drawn) [Example 176]
[1]
  ED50: 30.9 mg/kg
[5]
  ED50: 11.2 mg/kg
[3]
  MIC: > 128 µg/mL
[4]
  MIC: 32 µg/mL (≈ 110 µM)

## CC(=O)c1ccc(N2CC(CNC(=O)C(F)(F)F)OC2=O)cc1 (stereo not drawn) [Example 178]
[1]
  ED50: 31.6 mg/kg
[5]
  ED50: 31.6 mg/kg
[3]
  MIC: > 128 µg/mL
[4]
  MIC: 16 µg/mL (≈ 48.4 µM)

## CC(=O)NC[C@H]1CN(c2ccc([S@@+](C)[O-])cc2)C(=O)O1 [Example 180]
[1]
  ED50: 2.5 mg/kg
[5]
  ED50: 0.8 mg/kg
[3]
  MIC: 128 µg/mL (≈ 432 µM)
[4]
  MIC: 4 µg/mL (≈ 13.5 µM)

## CC(=O)NC[C@H]1CN(c2ccc([S@+](C)[O-])cc2)C(=O)O1 [Example 181, (S,S)-N-[3-[4-(Methylsulfinyl)phenyl]-2-oxo-5-oxazolidinylmethyl]acetamide]
[1]
  ED50: 2.8 mg/kg
[5]
  ED50: 1 mg/kg
[3]
  MIC: > 128 µg/mL
[4]
  MIC: 16 µg/mL (≈ 54 µM)
